One assay concerns the target T1, h-e5′NT (Homo sapiens, UniProt P21589).
T1 sequence (P21589 27-574): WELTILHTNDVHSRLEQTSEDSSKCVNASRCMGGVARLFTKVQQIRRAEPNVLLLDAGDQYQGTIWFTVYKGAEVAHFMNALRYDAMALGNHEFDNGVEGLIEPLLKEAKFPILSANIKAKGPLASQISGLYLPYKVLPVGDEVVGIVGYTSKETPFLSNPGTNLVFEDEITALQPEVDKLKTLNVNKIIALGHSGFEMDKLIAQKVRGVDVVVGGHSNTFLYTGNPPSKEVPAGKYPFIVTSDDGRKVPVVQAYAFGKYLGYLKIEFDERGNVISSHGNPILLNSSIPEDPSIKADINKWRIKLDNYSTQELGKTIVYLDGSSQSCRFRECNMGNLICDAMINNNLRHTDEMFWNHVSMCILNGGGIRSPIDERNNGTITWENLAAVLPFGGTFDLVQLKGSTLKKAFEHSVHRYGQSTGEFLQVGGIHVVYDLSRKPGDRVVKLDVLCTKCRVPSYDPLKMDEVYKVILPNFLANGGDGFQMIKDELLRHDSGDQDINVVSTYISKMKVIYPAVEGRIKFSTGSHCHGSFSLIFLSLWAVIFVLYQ
Briefly: CD73. Type of assay: biochemical. Particulars: for inhibition at 100 µM: read-out: inhibition% h-e5′NT.

Another assay concerns the target T2, r-e5′NT (Rattus norvegicus, UniProt P21588).
T2 sequence (P21588 29-576): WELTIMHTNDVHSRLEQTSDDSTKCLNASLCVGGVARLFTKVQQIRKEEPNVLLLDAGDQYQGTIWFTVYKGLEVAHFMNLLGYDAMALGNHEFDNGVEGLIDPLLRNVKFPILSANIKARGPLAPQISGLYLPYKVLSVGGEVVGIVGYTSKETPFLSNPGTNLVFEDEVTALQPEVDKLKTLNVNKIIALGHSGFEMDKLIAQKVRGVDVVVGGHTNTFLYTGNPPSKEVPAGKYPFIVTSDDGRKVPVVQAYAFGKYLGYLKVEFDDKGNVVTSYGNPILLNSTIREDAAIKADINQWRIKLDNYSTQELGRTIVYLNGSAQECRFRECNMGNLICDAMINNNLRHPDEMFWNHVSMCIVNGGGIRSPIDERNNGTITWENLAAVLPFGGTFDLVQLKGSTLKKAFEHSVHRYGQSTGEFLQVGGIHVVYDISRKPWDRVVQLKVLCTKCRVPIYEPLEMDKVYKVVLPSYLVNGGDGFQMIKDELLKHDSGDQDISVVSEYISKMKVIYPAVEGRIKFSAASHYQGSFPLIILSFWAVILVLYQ
Briefly: CD73. In kind it is biochemical. To be noted: for inhibition at 100 µM: read-out: inhibition% r-e5′NT.

Another assay has as its target T3, h-TNAP (Homo sapiens, UniProt P05186).
T3 sequence (P05186 18-524): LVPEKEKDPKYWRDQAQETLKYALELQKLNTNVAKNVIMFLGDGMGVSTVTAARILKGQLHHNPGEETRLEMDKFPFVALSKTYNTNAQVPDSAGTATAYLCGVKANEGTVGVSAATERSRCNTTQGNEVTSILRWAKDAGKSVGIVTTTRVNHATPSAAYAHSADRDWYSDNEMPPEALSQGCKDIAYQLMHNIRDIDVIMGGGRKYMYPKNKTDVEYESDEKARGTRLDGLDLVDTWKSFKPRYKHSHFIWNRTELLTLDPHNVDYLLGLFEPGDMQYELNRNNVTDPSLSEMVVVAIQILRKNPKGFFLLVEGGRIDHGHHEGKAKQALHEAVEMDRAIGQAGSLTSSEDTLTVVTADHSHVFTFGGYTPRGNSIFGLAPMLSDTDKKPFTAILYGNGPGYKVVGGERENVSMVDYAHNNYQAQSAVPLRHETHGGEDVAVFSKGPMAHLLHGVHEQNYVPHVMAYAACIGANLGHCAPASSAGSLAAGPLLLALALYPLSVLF
Briefly: h-TNAP inhibition assay. In kind it is biochemical. To be noted: for inhibition at 100 µM: read-out: inhibition% h-TNAP.

For the next assay, the system named is MCF-7. Particulars: read-out: IC50 (cell viability); cited from earlier work.
In a further assay the target is T4, h-ENPP1 (Homo sapiens, UniProt P22413).
T4 sequence (P22413 1-925): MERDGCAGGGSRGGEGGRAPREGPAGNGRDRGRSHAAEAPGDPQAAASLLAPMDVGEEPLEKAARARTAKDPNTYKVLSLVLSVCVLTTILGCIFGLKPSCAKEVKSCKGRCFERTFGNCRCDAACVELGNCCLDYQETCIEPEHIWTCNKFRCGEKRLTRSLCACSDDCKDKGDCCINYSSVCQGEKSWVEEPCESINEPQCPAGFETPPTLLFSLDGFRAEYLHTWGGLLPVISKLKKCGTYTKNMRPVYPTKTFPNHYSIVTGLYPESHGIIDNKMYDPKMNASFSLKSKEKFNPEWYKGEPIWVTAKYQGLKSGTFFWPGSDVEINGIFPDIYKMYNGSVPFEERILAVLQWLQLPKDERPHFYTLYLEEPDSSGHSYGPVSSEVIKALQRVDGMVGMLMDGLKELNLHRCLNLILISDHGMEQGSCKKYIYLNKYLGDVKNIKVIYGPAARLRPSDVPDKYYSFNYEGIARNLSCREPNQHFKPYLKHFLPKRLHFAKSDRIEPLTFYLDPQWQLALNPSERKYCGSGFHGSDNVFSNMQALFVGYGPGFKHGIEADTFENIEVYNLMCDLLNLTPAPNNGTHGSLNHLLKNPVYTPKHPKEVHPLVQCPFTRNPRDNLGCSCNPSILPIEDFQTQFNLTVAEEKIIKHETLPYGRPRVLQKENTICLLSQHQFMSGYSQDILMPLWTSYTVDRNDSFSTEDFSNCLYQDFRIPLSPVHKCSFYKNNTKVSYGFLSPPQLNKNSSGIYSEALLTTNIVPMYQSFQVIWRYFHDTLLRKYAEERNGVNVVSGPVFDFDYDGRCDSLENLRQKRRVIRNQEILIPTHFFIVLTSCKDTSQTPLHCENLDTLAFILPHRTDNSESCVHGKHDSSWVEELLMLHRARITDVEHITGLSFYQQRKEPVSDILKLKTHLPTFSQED
Briefly: h-ENPP1 inhibition assay. In kind it is biochemical. To be noted: read-out: inhibition% h-ENPP1.

A further assay has as its target T5, h-ENPP3 (Homo sapiens, UniProt O14638).
T5 sequence (O14638 1-875): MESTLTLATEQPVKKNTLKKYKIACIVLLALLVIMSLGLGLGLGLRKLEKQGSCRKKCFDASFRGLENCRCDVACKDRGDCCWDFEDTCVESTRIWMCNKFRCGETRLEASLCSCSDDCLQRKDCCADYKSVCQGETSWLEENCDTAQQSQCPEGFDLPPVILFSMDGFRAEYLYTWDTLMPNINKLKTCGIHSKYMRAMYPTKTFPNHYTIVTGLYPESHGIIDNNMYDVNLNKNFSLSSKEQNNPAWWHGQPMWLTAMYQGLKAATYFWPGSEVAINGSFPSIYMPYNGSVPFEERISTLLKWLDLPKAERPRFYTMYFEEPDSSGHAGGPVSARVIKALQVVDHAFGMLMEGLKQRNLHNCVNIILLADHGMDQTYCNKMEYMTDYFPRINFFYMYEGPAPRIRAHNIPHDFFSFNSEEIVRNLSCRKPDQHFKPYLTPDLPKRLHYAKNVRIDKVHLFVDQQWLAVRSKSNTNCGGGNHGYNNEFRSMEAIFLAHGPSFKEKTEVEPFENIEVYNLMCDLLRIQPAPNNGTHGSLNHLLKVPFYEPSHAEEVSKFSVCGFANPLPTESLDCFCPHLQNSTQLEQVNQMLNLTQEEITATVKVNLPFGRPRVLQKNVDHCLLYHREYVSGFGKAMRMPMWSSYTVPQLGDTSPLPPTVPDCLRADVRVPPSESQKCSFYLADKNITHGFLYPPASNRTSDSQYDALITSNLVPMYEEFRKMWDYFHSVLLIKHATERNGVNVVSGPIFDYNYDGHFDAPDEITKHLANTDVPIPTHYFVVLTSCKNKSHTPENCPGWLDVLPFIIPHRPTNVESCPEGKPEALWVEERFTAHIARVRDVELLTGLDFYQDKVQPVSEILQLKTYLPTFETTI
Briefly: h-ENPP3 inhibition assay. Type of assay: biochemical. To be noted: for selectivity for h-ENPP3 between the two h-ENPP isozymes: h-ENPP3 versus h-ENPP1.

Structures are written as SMILES.

Here are results for 14 molecules from paper PMC10562900 (RSC Advances, 2023).

One may read the IC50 as the concentration needed to halve the response being measured. Usually inhibition stands for the relative decrease from the control value, in per cent.

On to `Cc1ccc(S(=O)(=O)Oc2ccccc2NC(=O)Cc2c[nH]c3ccccc23)cc1Cl` [5g, 2-(2-(1H-indol-3-yl)acetamido)phenyl 3-chloro-4-methylbenzenesulfonate], for which the IC50 at h-e5′NT came out at 4410 ± 190 nM; at r-e5′NT it was 1850 ± 110 nM; at h-TNAP, 590 ± 80 nM.

With `O=C(Cc1c[nH]c2ccccc12)Nc1ccccc1OS(=O)(=O)C(F)(F)F` [5j, 2-(2-(1H-indol-3-yl)acetamido)phenyl trifluoromethanesulfonate], the IC50 on h-e5′NT worked out at 890 ± 40 nM; on r-e5′NT, 5120 ± 610 nM; against h-TNAP, 1680 ± 70 nM.

Molecule `O=C(Cc1c[nH]c2ccccc12)Nc1ccccc1OS(=O)(=O)Cc1ccccc1` [5b, 2-(2-(1H-indol-3-yl)acetamido)phenyl phenylmethanesulfonate] yielded an IC50 on h-e5′NT of 13200 ± 3140 nM. Further, the inhibition at 100 µM at r-e5′NT worked out at 38.5%; on h-TNAP it was 42.4%.

On to `COc1cccc(OS(=O)(=O)c2ccc(C)cc2)c1` [3-methoxyphenyl p-toluenesulfonate], for which, in the assay on MCF-7, the IC50 was 89800 nM.

Consider `O=C(Cc1c[nH]c2ccccc12)Nc1ccccc1OS(=O)(=O)c1ccc(Br)cc1` [5f, 2-(2-(1H-indol-3-yl)acetamido)phenyl 4-bromobenzenesulfonate], for which the half-maximal inhibitory concentration (IC50) against h-e5′NT worked out at 690 ± 1 nM; against r-e5′NT, 1640 ± 20 nM; against h-TNAP, 6580 ± 250 nM.

For `CC(C)S(=O)(=O)Oc1ccccc1NC(=O)Cc1c[nH]c2ccccc12` [5k, 2-(2-(1H-indol-3-yl)acetamido)phenyl propane-2-sulfonate], the figures for the inhibition at 100 µM on h-e5′NT, on r-e5′NT and at h-TNAP were 37.5%, 28.6% and 31.8%, respectively.

As to `O=C(Cc1c[nH]c2ccccc12)Nc1ccccc1OS(=O)(=O)c1ccc(Cl)cc1` [5l, 2-(2-(1H-indol-3-yl)acetamido)phenyl 4-chlorobenzenesulfonate], the IC50 on h-e5′NT amounted to 430 ± 30 nM; on r-e5′NT, 5670 ± 110 nM; against h-TNAP, 1690 ± 180 nM.

For `Cc1ccc(S(=O)(=O)Oc2ccccc2NC(=O)Cc2c[nH]c3ccccc23)cc1` [5o, 2-(2-(1H-indol-3-yl)acetamido)phenyl 4-methylbenzenesulfonate], the inhibition at 100 µM at h-ENPP1 is 28.3%. Also, the IC50 was 2670 ± 460 nM against h-ENPP3, 3210 ± 830 nM on h-e5′NT, 4860 ± 40 nM at r-e5′NT and 3370 ± 50 nM on h-TNAP. Moreover, the “selectivity for h-ENPP3 between the two h-ENPP isozymes” value at h-ENPP3 was “more effective and selective for h-ENPP3”.

For the molecule `O=C(Cc1c[nH]c2ccccc12)Nc1ccccc1OS(=O)(=O)c1cccc2cccnc12` [5m, 2-(2-(1H-indol-3-yl)acetamido)phenyl quinoline-8-sulfonate], the IC50 against h-e5′NT is 6530 ± 670 nM; at h-TNAP, 1300 ± 380 nM. In addition, the inhibition at 100 µM on r-e5′NT turned out to be 30%.

In the case of `O=C(Cc1c[nH]c2ccccc12)Nc1ccccc1OS(=O)(=O)c1ccc(-c2ccccc2)cc1` [5e, 2-(2-(1H-indol-3-yl)acetamido)phenyl [1,1′-biphenyl]-4-sulfonate], the IC50 worked out at 560 ± 16 nM against h-e5′NT, 980 ± 20 nM against r-e5′NT and 1060 ± 30 nM against h-TNAP.

With `O=C(Cc1c[nH]c2ccccc12)Nc1ccccc1OS(=O)(=O)c1cccs1` [5n, 2-(2-(1H-indol-3-yl)acetamido)phenyl thiophene-2-sulfonate], the inhibition at 100 µM was found to be 38% on h-ENPP1, 44.7% at h-e5′NT, 46.6% at r-e5′NT and 28.9% on h-TNAP. Also, the IC50 at h-ENPP3 turned out to be 2550 ± 70 nM. For the same molecule, the “selectivity for h-ENPP3 between the two h-ENPP isozymes” value on h-ENPP3 is “more effective and selective for h-ENPP3”.

In the case of `COc1ccc(OS(=O)(=O)c2ccc(C)cc2)cc1` [p-methoxyphenyl p-toluenesulfonate], the IC50 with MCF-7 is 126000 nM.

`COc1ccc(S(=O)(=O)Oc2ccccc2NC(=O)Cc2c[nH]c3ccccc23)cc1` [5d, 2-(2-(1H-indol-3-yl)acetamido)phenyl 4-methoxy-benzenesulfonate]: the IC50 on h-e5′NT worked out at 3460 ± 120 nM; on r-e5′NT it was 1770 ± 120 nM; against h-TNAP, 5180 ± 460 nM.

Regarding `O=C(Cc1c[nH]c2ccccc12)Nc1ccccc1OS(=O)(=O)c1ccccc1Cl` [5a, 2-(2-(1H-indol-3-yl)acetamido)phenyl 2-chlorobenzenesulfonate], the figures for the IC50 against h-e5′NT and against h-TNAP were 1190 ± 20 nM and 1600 ± 110 nM, respectively. Further, on r-e5′NT, the inhibition at 100 µM was determined as 22.7%.
